Measured values reported in patent US20220380415A1, “Antibiotic Peptides, Compositions and Uses Thereof” (priority 2019, published 2022).
≈ marks a conversion by molar mass, not a printed value. Entries after “also recorded” stand apart in the source; their conditions may differ. Read-outs that look alike come from different tables or passages of the source. Positions of bridges follow the written chain, without caps; N, C: chain ends. Residues, ends and D or L forms follow the SMILES beside them.

What was measured:
[1] = system: Burkholderia pseudomallei Bp82
[2] = system: Enterohemorrhagic Escherichia coli O157:H7 TUV-93-0
B. mallei NVSL 86-567-2 [3] = system: B. mallei NVSL 86-567-2
B. mallei Old ISU [4] = system: B. mallei Old ISU
B. cepacia ATCC 25416 [5] = system: B. cepacia ATCC 25416
[6] = system: Burkholderia gladioli ATCC 10248
[7] = system: Burkholderia pseudomallei 576mn
[8] = system: Salmonella enterica serovar newport
[9] = system: B. multivorans ATCC 17616
Burkholderia multivorans = assay type: cell-based
B. mallei NVSL 86-567-2 [10] = system: B. mallei NVSL 86-567-2; remark: listed apart in the source
B. pseudomallei = assay type: cell-based, Burkholderia pseudomallei
B. cepacia ATCC 25416 [11] = system: B. cepacia ATCC 25416; remark: listed apart in the source
B. mallei Old ISU [12] = system: B. mallei Old ISU; remark: listed apart in the source
[13] = system: B. multivorans ATCC 17616; remark: listed apart in the source
[14] = system: Pseudomonas aeruginosa PAO1
[15] = system: Burkholderia thailandensis E264
[16] = system: Burkholderia multivorans ATCC 17616
E. coli RNA polymerase = E. coli RNA polymerase (Escherichia coli, UniProt P0A8T7+P0A8V2); assay: in vitro abortive transcription initiation assay (RNAP inhibition); assay type: biochemical
[17] = thermostability analysis via LC-MS; settings: heated to 95° C.; 2 h for the LC-MS sample
[18] = system: Salmonella enterica serovar newport; settings: cited from earlier work
[19] = system: Enterohemorrhagic Escherichia coli O157:H7 TUV-93-0; settings: E. coli; cited from earlier work

Sequence of E. coli RNA polymerase (P0A8T7 whole entry): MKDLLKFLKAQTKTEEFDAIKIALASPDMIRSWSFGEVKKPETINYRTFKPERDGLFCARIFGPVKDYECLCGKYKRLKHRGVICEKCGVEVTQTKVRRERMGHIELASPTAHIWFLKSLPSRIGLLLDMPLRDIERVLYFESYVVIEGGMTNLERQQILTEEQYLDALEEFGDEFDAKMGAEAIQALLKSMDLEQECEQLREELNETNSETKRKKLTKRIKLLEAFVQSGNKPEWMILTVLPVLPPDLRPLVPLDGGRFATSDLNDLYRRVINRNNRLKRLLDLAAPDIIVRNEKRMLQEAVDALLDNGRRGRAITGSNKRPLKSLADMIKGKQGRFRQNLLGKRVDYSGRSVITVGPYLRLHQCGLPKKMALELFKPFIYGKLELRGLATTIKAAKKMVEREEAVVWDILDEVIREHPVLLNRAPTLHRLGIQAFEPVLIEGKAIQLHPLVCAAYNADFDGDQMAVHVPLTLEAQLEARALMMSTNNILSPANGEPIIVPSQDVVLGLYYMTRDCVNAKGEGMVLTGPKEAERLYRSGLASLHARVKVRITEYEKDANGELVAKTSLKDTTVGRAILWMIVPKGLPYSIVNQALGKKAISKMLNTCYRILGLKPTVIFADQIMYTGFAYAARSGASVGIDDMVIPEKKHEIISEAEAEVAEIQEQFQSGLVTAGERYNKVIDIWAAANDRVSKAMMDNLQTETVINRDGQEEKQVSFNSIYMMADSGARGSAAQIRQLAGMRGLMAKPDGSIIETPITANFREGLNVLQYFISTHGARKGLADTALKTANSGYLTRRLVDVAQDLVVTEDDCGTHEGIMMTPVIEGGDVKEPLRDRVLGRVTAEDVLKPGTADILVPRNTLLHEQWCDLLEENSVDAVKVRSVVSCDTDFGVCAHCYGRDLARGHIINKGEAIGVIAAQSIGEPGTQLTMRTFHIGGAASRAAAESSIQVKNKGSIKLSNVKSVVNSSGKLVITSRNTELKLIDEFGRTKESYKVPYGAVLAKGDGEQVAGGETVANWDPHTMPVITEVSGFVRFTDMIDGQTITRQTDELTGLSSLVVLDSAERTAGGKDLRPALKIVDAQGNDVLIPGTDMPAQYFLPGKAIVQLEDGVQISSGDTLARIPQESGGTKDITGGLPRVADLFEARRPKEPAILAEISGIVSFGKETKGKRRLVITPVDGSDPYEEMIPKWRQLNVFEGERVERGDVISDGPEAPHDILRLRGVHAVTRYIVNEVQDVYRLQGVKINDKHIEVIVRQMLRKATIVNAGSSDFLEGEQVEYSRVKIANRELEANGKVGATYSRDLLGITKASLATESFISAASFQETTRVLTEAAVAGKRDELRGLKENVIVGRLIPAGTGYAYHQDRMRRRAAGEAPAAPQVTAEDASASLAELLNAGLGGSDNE
Sequence of E. coli RNA polymerase (P0A8V2 whole entry): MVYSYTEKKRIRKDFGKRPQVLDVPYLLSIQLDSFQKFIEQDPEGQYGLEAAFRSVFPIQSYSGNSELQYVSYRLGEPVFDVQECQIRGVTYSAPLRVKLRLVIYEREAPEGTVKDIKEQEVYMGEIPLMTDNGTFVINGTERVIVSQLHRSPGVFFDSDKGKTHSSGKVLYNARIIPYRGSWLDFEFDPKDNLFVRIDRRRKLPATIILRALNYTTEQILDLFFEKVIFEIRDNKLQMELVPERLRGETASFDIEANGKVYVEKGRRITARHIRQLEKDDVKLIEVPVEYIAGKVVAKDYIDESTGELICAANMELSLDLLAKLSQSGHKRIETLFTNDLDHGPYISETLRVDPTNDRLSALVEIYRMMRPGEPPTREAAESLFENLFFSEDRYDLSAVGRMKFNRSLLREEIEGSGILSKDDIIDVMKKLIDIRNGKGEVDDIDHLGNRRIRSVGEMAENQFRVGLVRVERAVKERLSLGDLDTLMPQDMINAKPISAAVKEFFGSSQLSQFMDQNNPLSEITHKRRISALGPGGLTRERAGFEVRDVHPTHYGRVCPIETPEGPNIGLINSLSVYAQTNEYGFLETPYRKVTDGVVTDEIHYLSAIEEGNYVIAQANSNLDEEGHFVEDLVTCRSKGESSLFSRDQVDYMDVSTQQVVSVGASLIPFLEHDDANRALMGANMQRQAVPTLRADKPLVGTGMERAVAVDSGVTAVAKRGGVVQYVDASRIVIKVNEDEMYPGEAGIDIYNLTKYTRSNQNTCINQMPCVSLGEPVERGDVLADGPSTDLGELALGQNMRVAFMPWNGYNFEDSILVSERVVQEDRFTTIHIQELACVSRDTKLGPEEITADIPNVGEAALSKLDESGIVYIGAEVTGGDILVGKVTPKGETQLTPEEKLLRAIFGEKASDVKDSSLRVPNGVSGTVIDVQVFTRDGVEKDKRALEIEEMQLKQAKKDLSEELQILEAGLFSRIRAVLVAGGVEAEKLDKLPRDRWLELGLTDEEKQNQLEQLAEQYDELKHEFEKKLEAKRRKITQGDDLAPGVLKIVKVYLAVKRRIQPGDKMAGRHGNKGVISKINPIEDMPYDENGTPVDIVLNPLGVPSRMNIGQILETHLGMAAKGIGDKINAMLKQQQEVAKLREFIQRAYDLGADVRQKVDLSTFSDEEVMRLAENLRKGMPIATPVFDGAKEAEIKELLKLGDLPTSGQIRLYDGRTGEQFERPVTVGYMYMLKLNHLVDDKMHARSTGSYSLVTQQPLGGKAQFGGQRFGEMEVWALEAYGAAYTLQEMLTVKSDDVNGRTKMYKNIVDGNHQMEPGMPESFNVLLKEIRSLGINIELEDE
Sequence of E. coli RNA polymerase (P0A7Z4 whole entry, further chain): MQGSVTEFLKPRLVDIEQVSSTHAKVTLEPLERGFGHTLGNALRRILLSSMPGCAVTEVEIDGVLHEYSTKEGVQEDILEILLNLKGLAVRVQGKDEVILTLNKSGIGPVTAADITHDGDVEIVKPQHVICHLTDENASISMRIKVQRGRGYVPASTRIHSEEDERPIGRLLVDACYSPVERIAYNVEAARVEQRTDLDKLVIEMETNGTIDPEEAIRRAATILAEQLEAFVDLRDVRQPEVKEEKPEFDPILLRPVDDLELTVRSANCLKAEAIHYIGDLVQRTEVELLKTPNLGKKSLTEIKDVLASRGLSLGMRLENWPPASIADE
Sequence of E. coli RNA polymerase (P00579 whole entry, further chain): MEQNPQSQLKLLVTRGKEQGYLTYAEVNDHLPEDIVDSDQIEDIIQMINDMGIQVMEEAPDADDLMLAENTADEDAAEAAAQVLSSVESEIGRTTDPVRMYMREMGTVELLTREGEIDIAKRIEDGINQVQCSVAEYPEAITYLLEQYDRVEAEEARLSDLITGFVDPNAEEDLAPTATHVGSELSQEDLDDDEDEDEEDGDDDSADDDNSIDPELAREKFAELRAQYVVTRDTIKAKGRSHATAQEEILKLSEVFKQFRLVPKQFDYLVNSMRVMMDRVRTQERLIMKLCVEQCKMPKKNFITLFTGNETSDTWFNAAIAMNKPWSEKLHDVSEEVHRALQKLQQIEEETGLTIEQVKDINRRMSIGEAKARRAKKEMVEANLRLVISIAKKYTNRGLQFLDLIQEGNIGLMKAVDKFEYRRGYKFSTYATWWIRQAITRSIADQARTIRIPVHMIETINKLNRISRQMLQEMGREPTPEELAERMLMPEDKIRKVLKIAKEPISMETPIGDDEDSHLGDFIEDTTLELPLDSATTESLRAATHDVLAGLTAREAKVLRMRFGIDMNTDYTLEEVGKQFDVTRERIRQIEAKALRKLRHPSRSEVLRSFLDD
Sequence of E. coli RNA polymerase (P0A800 whole entry, further chain): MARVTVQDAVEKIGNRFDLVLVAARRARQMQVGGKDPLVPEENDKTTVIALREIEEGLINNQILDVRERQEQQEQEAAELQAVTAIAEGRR

In the case of `CC[C@H](C)[C@@H]1NC(=O)[C@H](CO)NC(=O)CNC(=O)[C@H](CC(=O)O)NC(=O)CNC(=O)CNC(=O)CC[C@@H](C(=O)N[C@@H](Cc2ccc(O)cc2)C(=O)N[C@@H](Cc2ccccc2)C(=O)N[C@@H](CC(N)=O)C(=O)N[C@@H](CCCNC(=N)N)C(=O)N2CCC[C@H]2C(=O)N[C@@H](CCSC)C(=O)N[C@@H](Cc2c[nH]cn2)C(=O)N[C@H](C(=O)N[C@@H](Cc2c[nH]cn2)C(=O)N[C@@H](CC(=O)O)C(=O)N[C@@H](Cc2c[nH]c3ccccc23)C(=O)N[C@@H](CCC(N)=O)C(=O)N[C@H](C(=O)N[C@@H](CCSC)C(=O)N[C@@H](CC(=O)O)C(=O)N[C@@H](CO)C(=O)NCC(=O)N[C@@H](Cc2ccc(O)cc2)C(=O)N[C@@H](Cc2ccc(O)cc2)C(=O)NCC(=O)O)[C@@H](C)CC)[C@@H](C)CC)NC(=O)[C@H](C)NC1=O` [ubonodin] (GGDGSIAEYFNRPMHIHDWQIMDSGYYG-OH; lactam N-8; C-terminus assumed), the “MIC in M63 agar” value [1] was greater than 500 µM, the “antimicrobial activity (in words)” value [2] was “unable to kill” and the “MIC in M63 agar” value ([2]; O157:H7) was greater than 500 µM. For the same molecule, the “MIC via spot-on-lawn assay” value (B. mallei NVSL 86-567-2 [3]) was 40 µM (≈ 128 µg/mL), the “MIC via spot-on-lawn assay” value (B. mallei Old ISU [4]) was 40 µM (≈ 128 µg/mL) and the “MIC via spot-on-lawn assay” value (B. cepacia ATCC 25416 [5]) was 40 µM (≈ 128 µg/mL). For the same molecule, the “antimicrobial activity (in words)” value [6] was “no activity”, the “MIC in M63 agar” value ([6]; ATCC 10248) was greater than 500 µM and the “MIC in M63 agar” value [7] was greater than 500 µM. The “antimicrobial activity (in words)” value [8] was “unable to kill”, the “MIC in M63 agar” value ([8]; serovar newport) was greater than 500 µM and the “MIC via liquid growth assay” value [9] was 31 µM (≈ 99.2 µg/mL). For the same molecule, the “activity against B. multivorans after heating” value (Burkholderia multivorans) was “maintains its activity; also recorded: loses activity”, the “MIC via liquid growth assay” value (B. mallei NVSL 86-567-2 [10]) was greater than 31 µM and the “antimicrobial activity (in words)” value (B. pseudomallei) was “no activity”. The “MIC via liquid growth assay” value (B. cepacia ATCC 25416 [11]) was 4 µM (≈ 12.8 µg/mL), the “MIC via liquid growth assay” value (B. mallei Old ISU [12]) was greater than 31 µM and the “MIC via spot-on-lawn assay” value [13] was 20 µM (≈ 64 µg/mL). For the same molecule, the “MIC in M63 agar” value [14] was greater than 500 µM, the “MIC in M63 agar” value [15] was 500 µM (≈ 1600 µg/mL) and the “MIC in M63 agar” value [16] was 8 µM (≈ 25.6 µg/mL). For the same molecule, the “MIC in M63 agar” value ([16]; ATCC 17616) was 7.8 µM (≈ 25 µg/mL), the “potency in abortive transcription assays relative to MccJ25” value (E. coli RNA polymerase) was “somewhat lower than that of MccJ25” and the “inhibition of E. coli RNA polymerase (abortive transcription initiation)” value (E. coli RNA polymerase; 0, 1, 10 or 100 μM peptide) was “inhibits transcription initiation; also recorded: able to inhibit E. coli RNAP; also recorded: inhibits E. coli RNA polymerase”. For the same molecule, the “thermal degradation by LC-MS” value [17] was “fragments into a variety of different structures; also recorded: major species in this sample is still intact ubonodin”.
In the case of “H17A (GGDGSIAEYFNRPMHIADWQIMDSGYYG; listed as Burkholderia ubonensis)”, the “antimicrobial activity of purified ubonodin variants relative to wild-type” value [16] was “near wild-type activity”.
For citrocin, the “susceptibility of strain to peptide” value [18] is given as “susceptible” and the “susceptibility of strain to peptide” value [19] is given as “susceptible”.
For “microcin J25 (GGAGHVPEYFVGIGTPISFYG) [MccJ25]”, the “susceptibility of strain to peptide” value [18] is given as “susceptible” and the “susceptibility of strain to peptide” value [19] is given as “susceptible”.
